We go through 6 compounds from patent publication US8759360B2, “Purine compounds” (Eli Lilly and Company, priority 2010, dated 2014).

One may read the Ki as a dissociation constant, usually derived from enzyme kinetics or from competition with a known ligand. As a reminder, the EC50 is the concentration at which the effect is half-maximal.

The subject of series [1] is Male Harlan Sprague Dawley rats. Put plainly: Chemotherapy-induced pain assay (paclitaxel, von Frey). Format: in vivo, rat. As to conditions: for Mean paw withdrawal latencies (mean ± SE): 1 hour post-dose, n of 12. As for the experimental part: Male Harlan Sprague Dawley rats 150-200 grams are acclimated to the vivarium for 7 days. The animals are maintained in a constant temperature and on a 12 hour light/12 hour dark cycle, and housed in groups of 3-4 with water and food ad libitum. Twice daily dosing of compound at 10 mg/kg (oral), morphine at 5 mg/kg, and vehicle commences on Day 1 of the study, and continues through the duration of the study (Day 18). Paclitaxel at 1 mg/kg (intraperitoneal) is administered on Days 2, 4, 6, and 8, for a cumulative dose of 4 mg/kg in order to induce chemotherapy-induced peripheral neuropathy.
Rats are placed in individual plexiglass chambers with a wire mesh platform bottom to allow access to the hindpaw. After an acclimation period of 15 minutes to 1 hour, the mid-plantar hind paws are assessed within the sciatic nerve distribution. A series of 8 von Frey hairs with logarithmically incremental stiffness (0.41, 0.70, 1.20, 2.00, 3.63, 5.50, 8.50, and 15.10 g) are applied to the hind paws. The von Frey hairs are presented perpendicular to the plantar surface with sufficient force to cause slight bending. Stimuli are presented at intervals of several seconds. A positive response is noted if the paw is sharply withdrawn or if flinching immediately upon removal of the hair is observed. On study days, behavioral endpoints are evaluated 1 hour post-dose. Score patterns are evaluated using the Dixon up-down method, and translated to a response threshold (1980, Ann Rev Pharmacol Toxicol 20:441-462). The maximum applied force is 15.10 grams. The initial behavior assessment occurs on Day 10 of the study, and subsequent measures are made on Study Days 12, 15, and 18.
Results are expressed as mean values with standard errors of the mean (mean±SE) for an n of 12 per group. All statistical evaluations are conducted utilizing a one-way ANOVA followed by comparison to the control group by Dunnett's Method. Statistical significance is assumed when p<0.05. Statistical analyses are performed using JMP statistical analysis software (SAS Research Institute, version 6.0.2).

A further series has as its system male Lewis rats. As to the kind of experiment: Monoiodoacetate (MIA) model, incapacitance testing. In kind it is in vivo. As to conditions: rat, single dose. As for the experimental part: For all studies male Lewis rats of approximately 8 weeks of age at the time of MIA injection are used to measure pain in the MIA model. The rats are housed in groups of 2 or 3 per cage and maintained in a constant temperature and on a 12 hour light/12 hour dark cycle. Animals have free access to food and water at all times except during data collection.
In the standard MIA model the right knees of each rat are injected with 0.3 mg MIA in 50 ul of saline and the left knees with 50 ul of saline. Pain is measured at varying times after MIA injection (not normally before 10 day post MIA injection) using incapacitance testing. This measures the difference in hind paw weight bearing between the MIA and saline injected knees, and each measurement is the average of 3 separate measurements each measured over 1 second.
For studies with CB2 agonists rats are randomized into dose groups (n=5 or 6) and then dosed once with the compound under investigation. Dosing is staggered by 15 minutes for each rat and at a predetermined time post-dose (usually 2 hours), pain measured using incapacitance testing. Studies are routinely run with 4 groups, vehicle (1% carboxy methyl cellulose in water plus 0.25% polysorbate 80) and 3 compound groups which can be either single compounds at a single dose or the same compound at 3 doses. Results are reported as the difference in weight bearing between saline and MIA injected knees and statistical comparisons are made between vehicle treated and compound treated animals to assess the effect of compounds on knee pain in the model.

A further series deals with T1, rat CB2 receptor (Rattus norvegicus, UniProt Q9QZN9).
T1 construct: expressed in transfected cells
T1 sequence (Q9QZN9 1-360): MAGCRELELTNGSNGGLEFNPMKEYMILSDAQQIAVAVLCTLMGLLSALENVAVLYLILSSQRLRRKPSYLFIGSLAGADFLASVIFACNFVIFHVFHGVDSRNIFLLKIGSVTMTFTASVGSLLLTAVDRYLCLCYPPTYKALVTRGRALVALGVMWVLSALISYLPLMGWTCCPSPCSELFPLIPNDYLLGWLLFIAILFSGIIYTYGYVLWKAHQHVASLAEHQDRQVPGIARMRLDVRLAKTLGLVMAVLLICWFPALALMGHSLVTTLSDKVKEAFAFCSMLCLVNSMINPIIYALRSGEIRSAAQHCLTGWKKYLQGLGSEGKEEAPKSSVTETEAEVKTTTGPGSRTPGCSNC
As to the kind of experiment: Displacement of 3H-CP55940 from rat CB2 receptors. Format: binding. The protocol: (§1) The methods of Felder et al. (Mol. Pharmaocol. 48:443-450, 1995) were utilized with minor modifications. Specifically, membrane homogenates from cells stably or transiently expressing the human or rat CB2 receptor were washed by centrifugation and diluted into a 50 mM Tris HCl (pH 7.4), 5 mM MgCl2, 2.5 mM EDTA, and 0.1% BSA buffer. Specific binding of 3H-CP55940 was defined with 1 μM CP55940. The ability of compounds to displace specific 3H-CP55940 binding was tested over a range of concentrations in the Tris, MgCl2, EDTA, BSA buffer in the presence of 1% dimethyl sulfoxide by incubating at room temperature for 90 minutes in a volume of 300 μl. Unifilter 96-well microplates pretreated with 0.5% polyvinylpyrrolidone, 0.1% polysorbate 20 in water were washed three times with cold Tris buffer. The reaction mixture was then transferred to the filter plate immediately before terminating the incubation by rapid filtration and three 200 μl washes with cold Tris buffer. After the filter plates dried, microscint 20 was added to each well, the plate sealed and counted for determination of disintegrations per minute. The displacement curves were graphed and the resulting Ki values determined utilizing Graphpad Prism.
(Displacement assays read how much labelled ligand stays bound in the presence of the test substance.)

In series [2] the target is T2, hCB2 (Homo sapiens, UniProt P34972). Put plainly: Displacement of 3H-CP55940 from human CB2 receptors. Format: binding. As to conditions: 3H-CP55940 displacement. Set-up: expressed in transfected cells. As for the experimental part:
as §1

The target of series [3] is T2, hCB2. Put plainly: CB2 in vitro functional assay (SPA based GTP-γ-35S binding, agonist mode). In kind it is biochemical. The protocol:
(§2) Exemplified compounds are tested in agonist mode using a SPA based GTP-γ-^35S binding assay. All assay components are prepared in assay buffer made up of 20 mM HEPES, 100 mM NaCl, 5 mM MgCl2, (pH 7.4 at room temperature). Semi-log compound dilutions are done in assay buffer containing BSA (final 0.125%). GTP-γ^35-S binding is measured in a 96 well format using a whole membrane capture technique for the CB1 assay and modifications of an antibody capture technique previously described (DeLapp et al. J Pharmacol Exp Ther 289:946-955, 1999) for the CB2 assay. All incubations are done at room temperature.
hCB2-Sf9 membranes and GDP (1 uM final) are added to assay buffer and homogenized. Diluted compounds and membranes are added to the assay plate and pre-incubated for 15 minutes. This is followed by addition of GTP-γ-^35S ([…] final) and another 35 minute incubation. Next a mixture containing Nonidet P40 detergent (0.2% final), anti-Gi antibody (final dilution of 1:362), and 1.25 mg anti-rabbit antibody scintillation proximity assay beads are added. The plates are then sealed, vortexed, and incubated for an additional 2 hours before centrifuging and counting as for CB1.
To analyze data, first subtract background from all wells. Determine percent agonist efficacy by normalizing agonist/inverse agonist dose response data to a full agonist (methanandamide) response. […]
For orientation: GTPγS is a poorly hydrolysed GTP analogue; its binding reports G protein activation.

For the next series, the target named is T3, hCB1 (Homo sapiens, UniProt P21554).
T3 construct: expressed in transfected cells; host or cells: CHO cells (membranes)
As to the kind of experiment: CB1 in vitro functional assay (SPA based GTP-γ-35S binding, agonist mode). In kind it is biochemical. The protocol:
as §2
hCB1-CHO membranes, GDP (1 uM final), and saponin (10 ug/mL final) are added to assay buffer and homogenized. Diluted compounds, GTP-γ-^35S (500 nM final) and membranes are added to the assay plate and incubated for 30 minutes. Then 1 mg/well Wheatgerm Agglutinin SPA bead is added, and the plates are sealed, vortexed, and incubated for an additional hour. Plates are then centrifuged at 700×g for 10 minutes and counted for 1 minute per well using a scintillation counter.
To analyze data, first subtract background from all wells. Determine percent agonist efficacy by normalizing agonist/inverse agonist dose response data to a full agonist (methanandamide) response. Analyze the data using a 4-parameter logistic reduced fit with Activity Base and XLFit3.

Series [4] in a line: Dose-ranging toxicity study in beagle dogs. In kind it is in vivo, dog. The note with it: both sexes, beagle, dog, 30 mg/kg single oral dose, plasma. As for the experimental part:
(§3) One male and one female beagle dog are used to evaluate the acute toxicity after a single oral gavage dose of CB2 agonist. The dogs are housed individually and maintained in a constant temperature and on a 12 hour light/12 hour dark cycle. CB2 agonist is prepared in vehicle (1% hydroxyethylcellulose, 0.25% polysorbate 80, and 0.05% Dow Corning® Antifoam 1510-US in purified water) and administered by oral gavage at a dose volume of 2 mL/kg. Dogs are observed for mortality and clinical observations (before dosing, 2 hours postdose, in the afternoon and daily thereafter). Food consumption is assessed by daily visual assessment of food remaining. Blood is collected before dosing and 48 hours after dosing to evaluate effects on haematology and clinical chemistry parameters. Blood is collected at 0.5, 1, 2, 4, 8, and 24 hours postdose to evaluate toxicokinetic plasma drug concentrations.

For a further series, the system named is beagle dog. Put plainly: Dose-ranging toxicity study in beagle dogs. Format: in vivo. As to conditions: single oral dose of 30 mg/kg. The protocol:
as §3

Structures can show the parent of a compound that is named as a salt. Where two headings read alike, the source gives them in different places.

T2 sequence (P34972 whole entry): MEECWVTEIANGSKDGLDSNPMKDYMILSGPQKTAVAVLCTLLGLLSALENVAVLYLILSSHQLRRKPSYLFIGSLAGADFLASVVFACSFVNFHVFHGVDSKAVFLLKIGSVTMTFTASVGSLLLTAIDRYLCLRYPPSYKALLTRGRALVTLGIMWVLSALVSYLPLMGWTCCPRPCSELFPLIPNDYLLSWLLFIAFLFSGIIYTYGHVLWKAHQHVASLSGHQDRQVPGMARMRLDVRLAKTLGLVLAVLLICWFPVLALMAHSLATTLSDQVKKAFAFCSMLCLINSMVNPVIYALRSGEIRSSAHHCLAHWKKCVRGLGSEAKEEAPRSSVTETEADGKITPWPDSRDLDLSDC
T3 sequence (P21554 whole entry): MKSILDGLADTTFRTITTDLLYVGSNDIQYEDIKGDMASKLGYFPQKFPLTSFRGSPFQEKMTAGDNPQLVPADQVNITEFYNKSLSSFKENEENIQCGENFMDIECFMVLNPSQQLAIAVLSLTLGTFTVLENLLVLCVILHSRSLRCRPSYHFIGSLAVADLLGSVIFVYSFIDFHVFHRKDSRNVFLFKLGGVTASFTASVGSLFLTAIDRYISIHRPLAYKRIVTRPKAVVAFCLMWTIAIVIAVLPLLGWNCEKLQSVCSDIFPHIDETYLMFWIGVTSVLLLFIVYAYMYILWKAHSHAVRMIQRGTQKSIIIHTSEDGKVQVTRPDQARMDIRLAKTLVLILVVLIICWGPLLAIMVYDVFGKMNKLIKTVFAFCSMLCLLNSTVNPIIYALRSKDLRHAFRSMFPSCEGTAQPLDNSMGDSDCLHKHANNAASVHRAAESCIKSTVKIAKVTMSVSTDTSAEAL

With `CN1CC[C@]23c4c5ccc(O)c4O[C@H]2[C@@H](O)C=C[C@H]3[C@H]1C5` [Morphine, reference compound], the “Mean paw withdrawal latencies (mean ± SE)” value in series [1] (Day 10, 5 mg/kg twice daily) was 8.16 ± 1.22; in series [1] (Day 12, 5 mg/kg twice daily), 3.67 ± 0.30; in series [1] (Day 15, 5 mg/kg twice daily), 3.84 ± 0.45; in series [1] (Day 18, 5 mg/kg twice daily) it was 3.46 ± 0.42.

For the compound `Cc1nc(N2CCN(C)CC2)c2nc(-c3ccccc3Cl)n(C(C)CO)c2n1.Cl` (single isomer, unassigned; isomer 1) [Example 18, 2-[8-(2-Chloro-phenyl)-2-methyl-6-(4-methyl-piperazin-1-yl)-purin-9-yl]-propan-1-ol hydrochloride, Isomer 1], the “pain versus vehicle (difference in hind paw weight bearing)” value with male Lewis rats (dose of 0.3 mg/kg) is “reduce pain versus vehicle”.

Turning to `COC(C)(C)Cn1c(-c2ccccc2Cl)nc2c(N3CCN(C(C)=O)CC3)nc(C)nc21` [Example 8, 1-[4-[8-(2-Chlorophenyl)-9-(2-methoxy-2-methyl-propyl)-2-methyl-purin-6-yl]piperazin-1-yl]ethanone], the Ki stood at 37.5 nM on rat CB2 receptor and 142 nM at hCB2 [2].

With `COCCCn1c(-c2ccccc2Cl)nc2c(N3CCN(CCF)CC3)nc(C)nc21` [Example 6, 8-(2-Chlorophenyl)-6-[4-(2-fluoroethyl)piperazin-1-yl]-9-(3-methoxypropyl)-2-methyl-purine hydrochloride], the values for the EC50 on hCB2 [3] and at hCB1 were 2.7 nM and above 100000 nM, respectively.

For the compound `Cc1nc(N2CCN(C)CC2)c2nc(-c3ccccc3Cl)n(C(C)CO)c2n1.Cl` (single isomer, unassigned; isomer 2) [Example 19, 2-[8-(2-Chloro-phenyl)-2-methyl-6-(4-methyl-piperazin-1-yl)-purin-9-yl]-propan-1-ol hydrochloride, Isomer 2], the EC50 on hCB2 [3] (agonist mode, hCB2-Sf9 membranes, read-out: relative EC50 value for CB2) was 22.4 nM; at hCB1 (agonist mode, hCB1-CHO membranes, read-out: relative EC50 value for CB1) it was above 100000 nM. In addition, the “pain versus vehicle (difference in hind paw weight bearing)” value in the series on male Lewis rats (dose of 0.3 mg/kg) and in the series with male Lewis rats (dose of 1 mg/kg) was “reduce pain versus vehicle” each time. In series [4] (read-out: mean Area-Under the Curve from 0-24 hours (AUC0-24hr)), the AUC(0-t) turned out to be 44500 ng·h/mL. For the same compound, in series [4] (read-out: mean maximum concentration (Cmax)), the Cmax was 7540 ng/mL. Moreover, the faeces entry in the series on beagle dog (female dog) is “Decreased faeces”. Further, the food consumption entry with beagle dog (female dog) was “minimal decreased food consumption”. Further, the “decrease in reticulocyte count, change relative to pre-dose” value in the series with beagle dog (female dog, 48 hours after dosing) is on record as 39%. For the same compound, in the series with beagle dog (one male and one female dog), the Post-dose clinical observations entry is “limited to vomiting and dilated pupils”. In addition, in series [1] (10 mg/kg oral twice daily, over the duration of the study (Day 18)), the “allodynia compared to both vehicle and morphine-treated animals” value was “developed less allodynia”. The “Mean paw withdrawal latencies (mean ± SE)” value in series [1] (Day 10, 10 mg/kg oral twice daily) is recorded as 11.25 ± 1.31; in series [1] (Day 12, 10 mg/kg oral twice daily), 7.38 ± 0.95; in series [1] (Day 15, 10 mg/kg oral twice daily), 7.90 ± 1.04; in series [1] (Day 18, 10 mg/kg oral twice daily), 6.02 ± 0.72.

With `CC(=O)N1CCN(c2nc(C)nc3c2nc(-c2ccccc2Cl)n3CC(C)(C)O)CC1` [Example 13, 1-[4-[8-(2-Chlorophenyl)-9-(2-hydroxy-2-methyl-propyl)-2-methyl-purin-6-yl]piperazin-1-yl]ethanone hydrochloride], the Ki at rat CB2 receptor (3H-CP55940 displacement, rat CB2, read-out: rat receptor Ki value) was found to be 215 nM; on hCB2 [2], 65.2 nM.
